The nature of data set [1]: Lipophilicity, log P of the compound. Format: physicochemical. The conditions noted are these: octanol/water.
A short description of data set [2]: Drug metabolism in human liver microsomes assessed as 5-(3-methoxy-4-(8-(neopentylamino)pyrido[3,4-d]pyrimidin-2-ylamino)phenyl)-4-methyl-4H-1,2,4-triazol-3-ol formation at 1 uM preincubated for 10 mins followed NADPH/UDP-glucuronic acid addition and measured after 30 mins by LC-MS/MS analysis. Format: ADME, microsome. The conditions noted are these: 0.5 h.
Data set [3] in a line: Intrinsic clearance in CD1 mouse liver microsomes assessed per mg protein at 1 uM preincubated for 10 mins followed NADPH/UDP-glucuronic acid addition and measured after 30 mins by LC-MS/MS analysis. Format: ADME, microsome. The conditions noted are these: 0.5 h. (Liver microsomes are a subcellular fraction often used to study metabolism.)
The nature of data set [4]: Intrinsic clearance in human liver microsomes assessed per mg protein at 1 uM preincubated for 10 mins followed NADPH/UDP-glucuronic acid addition and measured after 30 mins by LC-MS/MS analysis. Format: ADME, microsome. The conditions noted are these: 0.5 h.
Data set [5] has as its target T1, Dual specificity protein kinase TTK (Homo sapiens, UniProt P33981).
T1 sequence (P33981 whole entry): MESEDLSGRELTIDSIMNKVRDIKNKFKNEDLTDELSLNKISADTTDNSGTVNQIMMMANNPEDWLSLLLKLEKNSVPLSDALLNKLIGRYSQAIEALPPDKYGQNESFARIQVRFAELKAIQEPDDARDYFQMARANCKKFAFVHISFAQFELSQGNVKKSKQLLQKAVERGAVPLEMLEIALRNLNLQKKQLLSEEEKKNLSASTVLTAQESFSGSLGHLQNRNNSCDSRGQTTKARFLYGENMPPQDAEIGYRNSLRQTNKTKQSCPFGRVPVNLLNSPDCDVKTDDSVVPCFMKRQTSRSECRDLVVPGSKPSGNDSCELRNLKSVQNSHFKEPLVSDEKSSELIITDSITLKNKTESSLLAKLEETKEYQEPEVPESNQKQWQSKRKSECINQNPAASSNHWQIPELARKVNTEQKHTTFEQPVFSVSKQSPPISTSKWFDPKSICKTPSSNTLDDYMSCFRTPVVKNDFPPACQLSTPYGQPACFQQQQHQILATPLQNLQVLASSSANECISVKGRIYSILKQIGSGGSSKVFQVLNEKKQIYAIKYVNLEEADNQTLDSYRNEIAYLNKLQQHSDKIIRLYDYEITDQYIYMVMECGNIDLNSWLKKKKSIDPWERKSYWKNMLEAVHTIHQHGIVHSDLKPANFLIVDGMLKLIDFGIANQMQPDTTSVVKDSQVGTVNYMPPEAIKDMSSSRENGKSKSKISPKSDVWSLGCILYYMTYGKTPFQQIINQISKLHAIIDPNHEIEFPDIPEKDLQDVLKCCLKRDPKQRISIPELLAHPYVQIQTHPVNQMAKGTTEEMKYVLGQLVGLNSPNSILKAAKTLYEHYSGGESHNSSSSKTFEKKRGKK
Description: Inhibition of full length human N-terminal 6xHis-tagged MPS1 expressed in baculovirus expression system using 5FAM-H236 peptide as substrate after 60 to 90 mins by caliper assay

The target in data set [6] is T1, Dual specificity protein kinase TTK. This is another data set of the same source.
Description: Inhibition of MPS1 autophosphorylation at Thr33/Ser37 in human HCT116 cells after 2 hrs by MSD assay
The target of data set [7] is CDK2/Cyclin A2 (Homo sapiens, UniProt P24941).
The nature of data set [8]: Drug metabolism in human liver microsomes assessed as 1-(2-(2-methoxy-4-(4-methyl-4H-1,2,4-triazol-3-yl)phenylamino)-6-methylpyrido[3,4-d]pyrimidin-8-ylamino)-2,2-dimethylpropan-1-ol formation at 1 uM preincubated for 10 mins followed NADPH/UDP-glucuronic acid addition and measured after 30 mins by LC-MS/MS analysis. Format: ADME, microsome. The conditions noted are these: 0.5 h.

The nature of data set [9]: Solubility of the compound in PBS buffer at pH 7.4 by HPLC analysis. Format: physicochemical.
Data set [10] in a line: Drug level in human liver microsomes treated with 1 uM N2-(2-Methoxy-4-(4-methyl-4H-1,2,4-triazol-3-yl)phenyl)-6-methyl-N8-neopentylpyrido[3,4-d]pyrimidine-2,8-diamine assessed as compound formation preincubated for 10 mins followed NADPH/UDP-glucuronic acid addition and measured after 30 mins by LC-MS/MS analysis. Format: ADME, microsome. The conditions noted are these: 0.5 h.

The test system of data set [11] is Canis familiaris. The data set is described as follows: Volume of distribution at steady state in dog at 1 mg/kg, iv by ESI-LCMS/MS analysis. The conditions noted are these: in vivo. Format: ADME, organism-based, Canis lupus familiaris.
Data set [12] is described as follows: Oral bioavailability in dog at 5 mg/kg by ESI-LCMS/MS analysis. Format: ADME, organism-based, Canis lupus familiaris. The conditions noted are these: in vivo.
Data set [13] relates to Canis familiaris. The data set is described as follows: Half life in dog at 1 mg/kg, iv by ESI-LCMS/MS analysis. The conditions noted are these: in vivo. Format: ADME, organism-based, Canis lupus familiaris.
Data set [14] can be described thus: AUClast in dog at 5 mg/kg, po measured after 48 hrs by ESI-LCMS/MS analysis. Format: ADME, organism-based, Canis lupus familiaris. The conditions noted are these: in vivo.
A short description of data set [15]: Cmax in dog at 5 mg/kg, po by ESI-LCMS/MS analysis. Format: ADME, organism-based, Canis lupus familiaris. The arrangement: dose 5 mg/kg, route oral. The conditions noted are these: in vivo.
Data set [16] can be described thus: Drug level in human liver microsomes treated with 1 uM N2-(2-Methoxy-4-(4-methyl-4H-1,2,4-triazol-3-yl)phenyl)-N8-neopentylpyrido[3,4-d]pyrimidine-2,8-diamine assessed as compound formation preincubated for 10 mins followed NADPH/UDP-glucuronic acid addition and measured after 30 mins by LC-MS/MS analysis. Format: ADME, microsome. The conditions noted are these: 0.5 h.

Data set [17] can be described thus: Volume of distribution at steady state in mouse at 5 mg/kg, iv by ESI-LCMS/MS analysis. Format: ADME, organism-based. The conditions noted are these: in vivo, read-out: Vdss.
Data set [18] deals with Mitogen-activated protein kinase 10 (Homo sapiens, UniProt P53779). The experiment in a line: Inhibition of recombinant human full length N-terminal GST-tagged JNK3 expressed in baculovirus expression system by Z'-LYTE assay.
Sequence of Mitogen-activated protein kinase 10 (P53779 whole entry): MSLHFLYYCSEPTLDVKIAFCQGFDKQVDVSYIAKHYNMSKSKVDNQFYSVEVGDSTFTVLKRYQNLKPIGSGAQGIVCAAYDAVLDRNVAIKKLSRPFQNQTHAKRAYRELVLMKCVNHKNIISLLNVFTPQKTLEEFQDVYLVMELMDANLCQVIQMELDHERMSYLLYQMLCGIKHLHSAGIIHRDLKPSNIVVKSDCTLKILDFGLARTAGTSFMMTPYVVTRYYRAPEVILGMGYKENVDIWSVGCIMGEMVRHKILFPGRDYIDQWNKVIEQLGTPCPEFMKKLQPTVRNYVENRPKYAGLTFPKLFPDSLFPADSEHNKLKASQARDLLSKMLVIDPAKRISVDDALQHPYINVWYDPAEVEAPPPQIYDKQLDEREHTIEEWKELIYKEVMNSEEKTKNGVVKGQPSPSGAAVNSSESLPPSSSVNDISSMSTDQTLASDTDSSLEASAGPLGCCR
The subject of data set [19] is Mus musculus. The data set is described as follows: Oral bioavailability in mouse at 5 mg/kg by ESI-LCMS/MS analysis. Format: ADME, organism-based. The conditions noted are these: in vivo.
A short description of data set [20]: AUClast in rat at 5 mg/kg, po measured after 24 hrs by ESI-LCMS/MS analysis. Format: ADME, organism-based. The conditions noted are these: in vivo.
Data set [21] can be described thus: Volume of distribution at steady state in rat at 2.5 mg/kg, iv by ESI-LCMS/MS analysis. The conditions noted are these: in vivo, read-out: Vdss. Format: ADME, organism-based.
The nature of data set [22]: Clearance in mouse at 5 mg/kg, iv by ESI-LCMS/MS analysis. Format: ADME, organism-based. The conditions noted are these: in vivo.
Data set [23] deals with Leucine-rich repeat serine/threonine-protein kinase 2 (Homo sapiens, UniProt Q5S007). The data set is described as follows: Inhibition of recombinant human GST-tagged LRRK2 (970 to 2527 residues) expressed in baculovirus expression system by Z'-LYTE assay.
Sequence of Leucine-rich repeat serine/threonine-protein kinase 2 (Q5S007 whole entry, the tested form may be a part): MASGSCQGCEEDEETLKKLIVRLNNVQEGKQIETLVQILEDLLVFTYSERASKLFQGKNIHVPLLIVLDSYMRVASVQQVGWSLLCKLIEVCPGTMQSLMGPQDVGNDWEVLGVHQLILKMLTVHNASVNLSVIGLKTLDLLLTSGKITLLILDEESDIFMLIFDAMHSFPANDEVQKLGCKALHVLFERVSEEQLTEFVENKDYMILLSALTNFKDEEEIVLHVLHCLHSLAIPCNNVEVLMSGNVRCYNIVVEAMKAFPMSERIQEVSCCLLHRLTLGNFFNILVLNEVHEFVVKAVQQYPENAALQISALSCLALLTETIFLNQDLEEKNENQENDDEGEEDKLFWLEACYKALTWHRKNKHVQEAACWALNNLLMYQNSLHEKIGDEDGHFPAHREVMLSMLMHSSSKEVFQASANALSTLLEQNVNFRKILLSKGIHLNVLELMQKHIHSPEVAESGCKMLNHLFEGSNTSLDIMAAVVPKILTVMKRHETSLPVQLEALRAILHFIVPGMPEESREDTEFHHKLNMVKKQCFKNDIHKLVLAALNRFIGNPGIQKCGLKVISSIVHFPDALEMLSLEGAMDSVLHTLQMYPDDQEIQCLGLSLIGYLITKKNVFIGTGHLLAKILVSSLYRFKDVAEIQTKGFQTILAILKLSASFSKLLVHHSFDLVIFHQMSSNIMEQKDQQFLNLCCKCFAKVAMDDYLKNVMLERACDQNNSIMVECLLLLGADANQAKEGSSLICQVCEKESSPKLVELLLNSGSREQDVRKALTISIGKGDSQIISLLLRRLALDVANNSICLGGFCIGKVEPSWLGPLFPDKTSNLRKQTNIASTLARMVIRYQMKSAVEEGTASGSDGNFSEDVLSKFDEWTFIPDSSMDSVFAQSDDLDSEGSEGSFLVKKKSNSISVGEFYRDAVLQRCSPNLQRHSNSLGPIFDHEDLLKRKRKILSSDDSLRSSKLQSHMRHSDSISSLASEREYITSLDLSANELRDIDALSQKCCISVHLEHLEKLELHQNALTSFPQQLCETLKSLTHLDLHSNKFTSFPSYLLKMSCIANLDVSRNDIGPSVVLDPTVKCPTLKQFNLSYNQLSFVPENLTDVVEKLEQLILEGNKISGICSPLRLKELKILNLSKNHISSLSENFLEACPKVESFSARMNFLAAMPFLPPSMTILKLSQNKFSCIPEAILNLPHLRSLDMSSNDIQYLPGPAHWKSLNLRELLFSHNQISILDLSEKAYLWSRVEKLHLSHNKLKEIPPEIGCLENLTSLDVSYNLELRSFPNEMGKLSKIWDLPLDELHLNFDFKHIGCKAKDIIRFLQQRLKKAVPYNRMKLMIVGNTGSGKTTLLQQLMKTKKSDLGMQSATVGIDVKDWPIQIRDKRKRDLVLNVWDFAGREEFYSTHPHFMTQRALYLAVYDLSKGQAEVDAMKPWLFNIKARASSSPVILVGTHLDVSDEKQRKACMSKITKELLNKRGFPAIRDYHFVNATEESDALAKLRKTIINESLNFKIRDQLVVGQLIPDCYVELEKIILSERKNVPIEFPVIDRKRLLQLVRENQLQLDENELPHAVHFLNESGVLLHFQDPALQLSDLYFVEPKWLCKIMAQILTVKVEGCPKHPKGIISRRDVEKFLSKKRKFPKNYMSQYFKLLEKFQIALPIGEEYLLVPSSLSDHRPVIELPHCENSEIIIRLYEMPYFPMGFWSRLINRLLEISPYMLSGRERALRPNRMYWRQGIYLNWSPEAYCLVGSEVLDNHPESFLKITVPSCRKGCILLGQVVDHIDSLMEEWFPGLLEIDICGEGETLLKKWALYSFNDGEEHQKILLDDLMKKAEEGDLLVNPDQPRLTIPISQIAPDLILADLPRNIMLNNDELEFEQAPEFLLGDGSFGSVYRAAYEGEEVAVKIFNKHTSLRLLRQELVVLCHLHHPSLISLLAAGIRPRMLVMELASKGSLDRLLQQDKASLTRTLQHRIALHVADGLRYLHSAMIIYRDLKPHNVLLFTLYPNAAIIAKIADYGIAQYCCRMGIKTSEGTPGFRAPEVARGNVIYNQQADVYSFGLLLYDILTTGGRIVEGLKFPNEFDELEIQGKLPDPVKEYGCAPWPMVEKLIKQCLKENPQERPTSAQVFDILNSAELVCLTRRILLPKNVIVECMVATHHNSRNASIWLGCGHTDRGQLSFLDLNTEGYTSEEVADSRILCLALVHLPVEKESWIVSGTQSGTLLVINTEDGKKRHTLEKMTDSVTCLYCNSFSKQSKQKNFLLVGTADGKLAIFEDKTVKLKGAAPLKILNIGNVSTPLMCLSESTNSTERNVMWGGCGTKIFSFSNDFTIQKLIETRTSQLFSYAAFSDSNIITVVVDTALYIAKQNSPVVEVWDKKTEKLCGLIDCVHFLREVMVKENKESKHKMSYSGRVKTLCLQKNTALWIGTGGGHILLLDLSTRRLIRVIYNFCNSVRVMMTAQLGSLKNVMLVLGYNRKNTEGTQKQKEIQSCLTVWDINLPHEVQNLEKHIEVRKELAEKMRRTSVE
A short description of data set [24]: AUClast in mouse at 5 mg/kg, po measured after 6 hrs by ESI-LCMS/MS analysis. Format: ADME, organism-based. The conditions noted are these: in vivo.
Data set [25] can be described thus: Dissociation constant, pKa of the compound. Format: physicochemical.
The nature of data set [26]: Cmax in rat at 5 mg/kg, po by ESI-LCMS/MS analysis. Format: ADME, organism-based. Also on record: dose 5 mg/kg, route oral. The conditions noted are these: in vivo.
The test system of data set [27] is Rattus norvegicus. The data set is described as follows: Oral bioavailability in rat at 5 mg/kg by ESI-LCMS/MS analysis. Format: ADME, organism-based. The conditions noted are these: in vivo.
Data set [28] has as its target Mitogen-activated protein kinase 9 (Homo sapiens, UniProt P45984). The experiment in a line: Inhibition of recombinant human full length His-tagged JNK2 expressed in baculovirus expression system by Z'-LYTE assay.
Data set [29] in a line: Cmax in mouse at 5 mg/kg, po by ESI-LCMS/MS analysis. Format: ADME, organism-based. Also on record: dose 5 mg/kg, route oral. The conditions noted are these: in vivo.
Data set [30] is described as follows: Clearance in rat at 2.5 mg/kg, iv by ESI-LCMS/MS analysis. Format: ADME, organism-based. The conditions noted are these: in vivo.
In data set [31] the target is Mitogen-activated protein kinase 8 (Homo sapiens, UniProt P45983). The data set is described as follows: Inhibition of recombinant human full length His-tagged JNK1 expressed in baculovirus expression system by Z'-LYTE assay.
Sequence of Mitogen-activated protein kinase 8 (P45983 whole entry): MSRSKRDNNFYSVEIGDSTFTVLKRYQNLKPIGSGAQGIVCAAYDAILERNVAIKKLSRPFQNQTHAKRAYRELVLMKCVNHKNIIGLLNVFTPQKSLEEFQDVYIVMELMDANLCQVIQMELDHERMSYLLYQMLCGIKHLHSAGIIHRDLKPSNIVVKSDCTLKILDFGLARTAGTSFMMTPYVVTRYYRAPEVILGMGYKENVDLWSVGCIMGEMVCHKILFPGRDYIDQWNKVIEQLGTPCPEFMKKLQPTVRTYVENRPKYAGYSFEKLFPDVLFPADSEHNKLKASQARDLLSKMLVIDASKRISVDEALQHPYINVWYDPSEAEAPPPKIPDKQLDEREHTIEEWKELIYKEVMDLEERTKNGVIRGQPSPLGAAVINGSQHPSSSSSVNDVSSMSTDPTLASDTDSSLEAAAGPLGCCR
The subject of data set [32] is Mus musculus. The data set is described as follows: Half life in mouse at 5 mg/kg, iv by ESI-LCMS/MS analysis. Format: ADME, organism-based. The conditions noted are these: in vivo.
Data set [33] has as its system Rattus norvegicus. The experiment in a line: Half life in rat at 2.5 mg/kg, iv by ESI-LCMS/MS analysis. Format: ADME, organism-based. The conditions noted are these: in vivo.
A short description of data set [34]: Protein binding in mouse plasma. Format: ADME, cell-free.

The results in this text go back to ChEMBL document CHEMBL4229562, “Introduction of a Methyl Group Curbs Metabolism of Pyrido[3,4- d]pyrimidine Monopolar Spindle 1 (MPS1) Inhibitors and Enables the Discovery of the Phase 1 Clinical Candidate N2-(2-Ethoxy-4-(4-methyl-4 H-1,2,4-triazol-3-yl)phenyl)-6-methyl- N8-neopentylpyrido[3,4- d]pyrimidine-2,8-diamine …” (J Med Chem, 2018).

What is called logP is a log measure of how a compound divides between an organic and an aqueous phase. Low values mean lower lipophilicity, high ones higher lipophilicity. As usually defined, the Ki is a dissociation constant, usually derived from enzyme kinetics or from competition with a known ligand. Low readings indicate higher affinity, high ones lower affinity. As a reminder, the IC50 is the concentration needed to halve the response being measured. Usually solubility stands for how much of the substance goes into solution per volume. Low values mean a poorly soluble substance, high ones a readily soluble substance. For orientation: Vdss means the apparent volume that relates the amount in the body to the concentration in plasma or blood. Low readings indicate confinement near the circulation, high ones extensive tissue distribution. For orientation: bioavailability means the share of a dose that reaches the circulation, judged against a reference dose that is usually intravenous. Low readings indicate little systemic uptake, high ones much systemic uptake. As usually defined, the AUC(0-t) is exposure summed from dosing to a finite time, without extrapolation to infinity. The low end stands for less exposure, the high end for more exposure. As a reminder, the Cmax is the maximum level reached in the sampled fluid or tissue. What is called clearance is the volume of plasma or blood freed of the substance per unit of time. Read a high clearance as a high capacity for elimination. The pKa is the negative logarithm of the acid dissociation constant.

In brackets after ≈: the same amount, converted by molar mass.

Sequence of Mitogen-activated protein kinase 9 (P45984 whole entry): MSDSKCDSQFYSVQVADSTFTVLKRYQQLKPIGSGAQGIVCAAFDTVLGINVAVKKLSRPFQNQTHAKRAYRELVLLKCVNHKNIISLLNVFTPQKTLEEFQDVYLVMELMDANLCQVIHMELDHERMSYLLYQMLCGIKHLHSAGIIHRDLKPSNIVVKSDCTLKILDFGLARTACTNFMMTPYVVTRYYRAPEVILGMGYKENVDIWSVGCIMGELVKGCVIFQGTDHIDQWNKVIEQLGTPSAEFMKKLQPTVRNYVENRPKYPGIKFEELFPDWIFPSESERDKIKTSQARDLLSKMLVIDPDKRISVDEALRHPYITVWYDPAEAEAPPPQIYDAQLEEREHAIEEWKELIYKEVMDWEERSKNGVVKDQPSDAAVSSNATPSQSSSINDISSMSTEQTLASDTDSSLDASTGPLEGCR

With `COc1cc(-c2nncn2C)ccc1Nc1ncc2ccnc(NCC(C)(C)C)c2n1`, in [1], the logP turned out to be 3.6. Further, the Drug metabolism result in data set [2] is “Metabolite_Detected”. The figures for the CLH in [3] and in data set [4] were 81.5 µL/min/mg and 92.1 µL/min/mg, respectively. Further, the Ki in [5] is at most 0.07 nM; in [7], 8 nM. The IC50 worked out at 3.5 nM in data set [6] and 16 nM in [7].
`COc1cc(-c2nncn2C)ccc1Nc1ncc2cc(C)nc(NCC(C)(C)C)c2n1` displayed a logP in data set [1] of 3.88. Besides, the CLH in [3] worked out at 41.1 µL/min/mg; in data set [4], 23.8 µL/min/mg. The IC50 in data set [5] turned out to be 13 nM; in data set [6], 30 nM; in [7], 130 nM. Besides, the Ki in data set [5] worked out at 0.13 nM; in data set [7], 65 nM. Moreover, the Drug metabolism result in data set [8] is on record as “Metabolite_Detected”. In [9], the solubility was determined as 8.6 µM (≈ 3.72 µg/mL).
For the compound `COc1cc(-c2nncn2C)ccc1Nc1ncc2cc(C)nc(NC(O)C(C)(C)C)c2n1` (configuration not stated), in data set [10], the Drug uptake result was “Active”.
For `CCOc1cc(-c2nncn2C)ccc1Nc1ncc2cc(C)nc(NCC(C)(C)C)c2n1.Cl.Cl`, in data set [11], the Vdss turned out to be 1.1 L/kg. Moreover, the bioavailability in [12] worked out at 100%. Also, in data set [13], the t1/2 amounted to 12 h. The compound also returned an AUC(0-t) at 48 h in data set [14] of 147 µM·h. In data set [15], the Cmax is 7770 nM.
On to `COc1cc(-c2nnc(O)n2C)ccc1Nc1ncc2ccnc(NCC(C)(C)C)c2n1`, for which the Drug uptake result in data set [16] is recorded as “Active”.
Turning to `CCOc1cc(-c2nncn2C)ccc1Nc1ncc2cc(C)nc(NCC(C)(C)C)c2n1` [BOS-172722], in data set [1], the logP was determined as 4.23. In addition, the CLH in [3] is 26.3 µL/min/mg; in data set [4], 8 µL/min/mg. The Vd in data set [17] turned out to be 2.46 L/kg; in data set [21], 3.52 L/kg. Besides, the IC50 in [18] worked out at 242 nM; in data set [23], 48 nM; in [5] it was 11 nM; in data set [6], 63 nM; in data set [28], 76 nM; in data set [7], 1020 nM. Besides, in data set [31], the IC50 was 92 nM. Besides, the results for the F in data set [19] and in data set [27] were 81% and 63%, respectively. Also, the AUC(0-t) at 24 h in data set [20] amounted to 11.3 µM·h. The clearance in data set [22] is 10.9 mL/min/kg; in [30], 10.1 mL/min/kg. The compound further yielded an area under the curve AUC(0-t) at 6 h in data set [24] of 11 µM·h. Further, the pKa in data set [25] was in the range of 2.63 to 6.22. In addition, the Ki was 0.11 nM in data set [5] and 510 nM in data set [7]. For the same compound, the peak concentration (Cmax) in data set [26] worked out at 813 nM; in [29], 2760 nM. The solubility in data set [9] was 6.6 µM (≈ 2.95 µg/mL). Further, the t1/2 in [32] came out at 2.68 h; in [33], 4.66 h. In data set [34], the PPB is given as 99.85%.
